Measurements as given in PubChem BioAssay (NCI).
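Cells were grown in 96-well plates and exposed to each compound for 48 hours at five concentrations; endpoints were interpolated linearly between bracketing concentrations, or set to the highest concentration if not reached. TGI is the concentration that stops growth completely.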

Columns and labels:
Assay in all cases: growth of human tumour cells (NCI), 48 h
ACHN renal = tested on: ACHN renal
SK-MEL-5 melanoma = tested on: SK-MEL-5 melanoma
EKVX NSCLC = tested on: EKVX NSCLC
SF-268 CNS = tested on: SF-268 CNS
MALME-3M melanoma = tested on: MALME-3M melanoma
SF-539 CNS = tested on: SF-539 CNS
HOP-92 NSCLC = tested on: HOP-92 NSCLC
OVCAR-4 ovarian = tested on: OVCAR-4 ovarian
SNB-19 CNS = tested on: SNB-19 CNS
NCI-H23 lung = tested on: NCI-H23 lung
CCRF-CEM leukemia = tested on: CCRF-CEM leukemia
SNB-75 CNS = tested on: SNB-75 CNS
LXFL 529 NSCLC = tested on: LXFL 529 NSCLC
SNB-78 CNS = tested on: SNB-78 CNS
IGROV1 ovarian = tested on: IGROV1 ovarian
XF 498 CNS = tested on: XF 498 CNS
OVCAR-8 ovarian = tested on: OVCAR-8 ovarian
UACC-62 melanoma = tested on: UACC-62 melanoma
HCC-2998 colon = tested on: HCC-2998 colon
HL-60(TB) leukemia = tested on: HL-60(TB) leukemia
NCI-H522 lung = tested on: NCI-H522 lung
HCT-116 colon = tested on: HCT-116 colon
KM12 colon = tested on: KM12 colon
HT29 colon = tested on: HT29 colon
UACC-257 melanoma = tested on: UACC-257 melanoma
COLO 205 colon = tested on: COLO 205 colon
SR leukemia = tested on: SR leukemia
CAKI-1 renal = tested on: CAKI-1 renal
K-562 leukemia = tested on: K-562 leukemia
SW-620 colon = tested on: SW-620 colon
SN12C renal = tested on: SN12C renal
KM20L2 colon = tested on: KM20L2 colon
TK-10 renal = tested on: TK-10 renal
MOLT-4 leukemia = tested on: MOLT-4 leukemia
M19-MEL melanoma = tested on: M19-MEL melanoma
U251 CNS = tested on: U251 CNS
SF-295 CNS = tested on: SF-295 CNS
HOP-62 NSCLC = tested on: HOP-62 NSCLC
DLD-1 colon = tested on: DLD-1 colon
RPMI-8226 leukemia = tested on: RPMI-8226 leukemia
OVCAR-3 ovarian = tested on: OVCAR-3 ovarian
DMS 273 small cell lung = tested on: DMS 273 small cell lung
OVCAR-5 ovarian = tested on: OVCAR-5 ovarian
SK-MEL-2 melanoma = tested on: SK-MEL-2 melanoma
A549 NSCLC = tested on: A549 NSCLC
SK-MEL-28 melanoma = tested on: SK-MEL-28 melanoma
M14 melanoma = tested on: M14 melanoma
A498 renal = tested on: A498 renal
SK-OV-3 ovarian = tested on: SK-OV-3 ovarian
UO-31 renal = tested on: UO-31 renal

CCC1NC(N=Nc2ccc([N+](=O)[O-])cc2)(P(=O)(OC(C)C)OC(C)C)OC1=O (stereo not given)
TGI (ACHN renal): > 100 µM | TGI (SK-MEL-5 melanoma): > 100 µM | TGI (EKVX NSCLC): > 100 µM | TGI (SF-268 CNS): > 100 µM | TGI (MALME-3M melanoma): > 100 µM | TGI (SF-539 CNS): > 100 µM | TGI (HOP-92 NSCLC): > 100 µM | TGI (OVCAR-4 ovarian): > 100 µM | TGI (SNB-19 CNS): > 100 µM | TGI (NCI-H23 lung): > 100 µM | TGI (CCRF-CEM leukemia): > 100 µM | TGI (SNB-75 CNS): 97.4 µM | TGI (LXFL 529 NSCLC): > 100 µM | TGI (SNB-78 CNS): > 100 µM | TGI (IGROV1 ovarian): > 100 µM | TGI (XF 498 CNS): > 100 µM | TGI (OVCAR-8 ovarian): > 100 µM | TGI (UACC-62 melanoma): > 100 µM | TGI (HCC-2998 colon): > 100 µM | TGI (HL-60(TB) leukemia): > 100 µM | TGI (NCI-H522 lung): > 100 µM | TGI (HCT-116 colon): > 100 µM | TGI (KM12 colon): > 100 µM | TGI (HT29 colon): > 100 µM | TGI (UACC-257 melanoma): > 100 µM | TGI (COLO 205 colon): > 100 µM | TGI (SR leukemia): > 100 µM | TGI (CAKI-1 renal): > 100 µM | TGI (K-562 leukemia): > 100 µM | TGI (SW-620 colon): > 100 µM | TGI (SN12C renal): > 100 µM | TGI (KM20L2 colon): > 100 µM | TGI (TK-10 renal): > 100 µM | TGI (MOLT-4 leukemia): > 100 µM | TGI (M19-MEL melanoma): > 100 µM | TGI (U251 CNS): > 100 µM | TGI (SF-295 CNS): > 100 µM | TGI (HOP-62 NSCLC): > 100 µM | TGI (DLD-1 colon): > 100 µM | TGI (RPMI-8226 leukemia): > 100 µM | TGI (OVCAR-3 ovarian): > 100 µM | TGI (DMS 273 small cell lung): > 100 µM | TGI (OVCAR-5 ovarian): > 100 µM | TGI (SK-MEL-2 melanoma): > 100 µM | TGI (A549 NSCLC): > 100 µM | TGI (SK-MEL-28 melanoma): > 100 µM | TGI (M14 melanoma): > 100 µM | TGI (A498 renal): > 100 µM | TGI (SK-OV-3 ovarian): > 100 µM | TGI (UO-31 renal): > 100 µM
